{"source": "patent US20030176356A1", "about": "“Endothelin antagonists and endothelin-converting enzyme inhibitors for the treatment of glaucoma” (University of North Texas Health Science Center, priority 2001, published 2003)", "key": {"[1]": {"tested_on": "human non-pigmented ciliary epithelial (HNPE) cells", "experiment": "Nitric oxide release from HNPE cells (nitrite, Griess colorimetric assay)", "type": "cell-based", "settings": "pre-treated with PD-142893 (1 μM) 30 minutes, then 100 nM ET-1, 24 hours; vs ET-1 alone", "procedure": "The effect of endothelin-1 (ET-1) and PD-142893, an ETA/B receptor antagonist, on nitric oxide (“NO”) release from human non-pigmented ciliary epithelial (HNPE) cells are illustrated in FIG. 6. The NO released into the culture media from HNPE cells grown in 24-well plates and treated with ET-1 (100 nM) for 24 hours was converted to nitrites. The total amount of nitrites was measured using the Griess colorimetric assay. HNPE cells were pre-treated with PD-142893 (1 μM) for 30 minutes and then 100 nM ET-1 was also added and incubated for 24 hours. The values in FIG. 6 represent the mean±SEM of a ratio between the nitrite produced under experimental conditions divided by the nitrite produced in control cells, which corresponded to 14.4±1.8 μM and controls were expressed as 100% (n=3). Statistical significance of the nitrite released from ET-1 (100 nM) treatment versus the control are denoted with an asterisk (“*”). Statistical significance of the nitrite released from PD-142893+ET-1 (100 nM) treatment versus that of ET-1 (100 nM) are denoted as a double asterisk (“**”) The statistical differenced were determined by one-way ANOVA and Student-Newman-Keuls multiple comparison test (p<0.05). Thus, addition of ET-1 increased the nitrite levels nearly 2-fold when compared to control cells or cells treated with PD-142893."}, "rat optic nerve": {"tested_on": "rat optic nerve", "experiment": "Anterograde axonal transport in rat optic nerve after intravitreal injection (35S-methionine pulse label)", "type": "in vivo", "settings": "28 hour ISI, 2 mmol dose, p>0.999, ANOVA, N=7", "from_the_text": "Newly synthesized proteins undergoing anterograde axonal transport in the optic nerve were pulse-labeled in either the presence or absence of endothelin as modified from previously published methods (van Biesen et al., 1995). Modifications to previously published methods were minimal and involved the replacement of a distilled water vehicle for resuspension of radiolabeled precursors with either HEPES buffered ET-1 or HEPES vehicle buffer alone. ^35S-Methionine (Easytag EXPRESS PROTEIN LABELING MIX, Dupont-NEN Life Sciences, Boston, Mass.) was lyophilized and resuspended in either vehicle alone (10 mM HEPES, pH 7.4, Sigma Chemical Co., St Louis, Mo.) or in vehicle containing 500 μM ET-1 (Bachem, Belmont, Calif.). Rats were anesthetized by Metofane inhalation, and 0.8 mCi (4 μl) of radiolabel in vehicle either plus or minus ET-1 (final dose 2 mmols), was injected into the vitreous of the left eye using a 30 gauge needle attached to a Hamilton syringe (microliter #710, 22s gauge, Hamilton Co., Reno, Nev.) by polyethylene tubing (PE-20, Clay Adams Brand, Becton Dickson and Co., Sparks, Md.) (van Biesen et al., 1995). In one experiment, ET-3 was substituted for ET-1, using the same methods (2 mmol dose, 28 hour ISI, N=7 for controls, N=7 for experimentals). […] One minute after injection, all retinas appeared normal in color. (Based upon these initial observations, further observations of the retinas were not performed). Information on the dose-related effect(s) of intravitreal ET-1 in this species (i.e. rat) were unavailable, and physiological/pathological concentrations of endothelin in the optic nerve head's microenvironment are generally unknown. Therefore, dose selection was made on the basis of a small pilot study, using these methods and measuring the total pulse-labeled protein axonally transported into the rat optic nerve. (An N of 3 rats in every group was used only for the pilot study, 4 hour ISI, data not shown). […] However, significant effects on axonal transport (4 hour ISI) were only seen in the pilot study for the 2 mmol dose. […] Possible effect(s) on non-assayed ocular tissues were not considered in dose selection, as data on these were unavailable for either acute or chronic intravitreal ET-1 administration, in rats.\nThis technique was employed to determine if endothelin-1 also affected the axonal transport in the optic nerve of rats, which is severely compromised in glaucoma. Harvest and preparation of pulse-labeled optic nerves in animals, wherein animals were anesthetized with metofane at specified times after injection and sacrificed by decapitation. Injection-sacrifice intervals were selected based upon the published characterizations of anterograde axonal transport in rat optic nerve for specific marker proteins associated with specific classes of axonally transported materials (Table 4) (Elluru et al., 1995; Garner and Lasek, 1981; Garner and Lasek, 1982; Jahn et al., 1985). Seven vehicle-treated animals and seven endothelin-treated animals were sacrificed at each of the specified times (4, 24, 28, 32, 36 hours and 4, 21 days). Optic nerves were removed, flash frozen with crushed dry ice, and sectioned frozen. Nerves were sectioned to aid complete homogenization, and to provide additional data for future studies. The frozen sections (2 mm in length) were numbered as segments 1-4 (from proximal to distal), and glass-on glass homogenized in 100 μlof BUST sample buffer (2% β-mercaptoethanol, 8M urea, 1% SDS, 0.1M Tris, 0.02% phenol red, pH 7.4). A 25% aliquot of each homogenized segment was counted in a liquid scintillation counter, and counts were corrected for decay, quench, and counting efficiency."}, "ECE-1 [2]": {"molecular_target": "T1, ECE-1 (Rattus norvegicus, UniProt P42893)", "T1 construct": "The endogenous ECE from the plasma membrane fraction converted the; from tissue; host or cells: rat lung tissue, plasma membrane fraction", "T1 sequence (P42893 1-762)": "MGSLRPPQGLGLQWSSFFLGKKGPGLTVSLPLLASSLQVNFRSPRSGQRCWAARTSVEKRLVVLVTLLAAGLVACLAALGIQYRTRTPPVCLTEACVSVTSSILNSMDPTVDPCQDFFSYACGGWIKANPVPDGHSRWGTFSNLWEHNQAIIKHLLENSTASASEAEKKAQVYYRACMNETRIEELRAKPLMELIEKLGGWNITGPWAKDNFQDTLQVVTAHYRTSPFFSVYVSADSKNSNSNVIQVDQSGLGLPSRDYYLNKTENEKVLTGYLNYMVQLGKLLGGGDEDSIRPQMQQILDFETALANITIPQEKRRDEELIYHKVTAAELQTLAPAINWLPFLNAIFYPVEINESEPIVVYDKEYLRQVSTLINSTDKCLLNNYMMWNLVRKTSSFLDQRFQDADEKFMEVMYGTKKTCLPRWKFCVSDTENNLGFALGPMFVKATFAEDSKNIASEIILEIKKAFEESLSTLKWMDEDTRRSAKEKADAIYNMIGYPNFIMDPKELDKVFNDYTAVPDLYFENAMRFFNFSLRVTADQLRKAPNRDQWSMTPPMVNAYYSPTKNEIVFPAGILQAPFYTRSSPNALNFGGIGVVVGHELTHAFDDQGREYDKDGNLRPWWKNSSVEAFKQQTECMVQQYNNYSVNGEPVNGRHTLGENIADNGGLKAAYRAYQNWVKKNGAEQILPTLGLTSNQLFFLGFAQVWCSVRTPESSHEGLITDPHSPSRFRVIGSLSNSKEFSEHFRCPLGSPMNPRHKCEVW", "experiment": "ECE-1 activity in plasma membrane fraction of rat lung tissue (conversion of 125I Big ET-1 to 125I ET-1)", "type": "biochemical", "procedure": "(§1) Fractions were incubated at 37° C. and collected at various time periods ranging from 5 minutes to 24 hours. […] Values represent the mean±SEM for data obtained from replicate samples. Statistical significance of mean [ET-1] among different time periods in HNPE cells as determined by one-way ANOVA and Student-Newman-Keuls multiple comparison test at p<0.05 (5 min n=3; 10 min n=6; 180 min n=9; 24 hrs n=4). Values that were statistically different are identified with an asterisk (“*”). Statistical significance of mean [ET−1] among different time periods in rat lung tissue as determined by one-way ANOVA and Student-Newman-Keuls multiple comparison test at p<0.05 (n=6 for 180 minutes; n=4 for other time periods) and denoted with a cross (“†”). It should be noted that the regression analysis (“r^2”) and line equation (“y=m×+b”) for percent ECE-1 activity were calculated based on a line graph with equal scale on the X axis ranging from 0-1500 minutes.\n(§2) Briefly, plasma membrane fractions (e.g. 20 μg total protein) of HNPE cells and rat lung tissue were incubated with 80 fmoles/mg protein of ^125I Big ET-1 for 180 minutes. […] However, each of the samples was divided into two groups: a control; and the CGS 26303 treated group. […] The data were analyzed statistically by one-way ANOVA, and those values that show a significant difference (p<0.05 level) are identified with an asterisk (*)."}, "ECE-1 [3]": {"molecular_target": "T2, ECE-1 (Homo sapiens, UniProt P42892)", "T2 construct": "The endogenous ECE from the plasma membrane fraction converted the; endogenous in cells; host or cells: HNPE cells (human non-pigmented ciliary epithelial), plasma membrane fraction", "T2 sequence (P42892 1-770)": "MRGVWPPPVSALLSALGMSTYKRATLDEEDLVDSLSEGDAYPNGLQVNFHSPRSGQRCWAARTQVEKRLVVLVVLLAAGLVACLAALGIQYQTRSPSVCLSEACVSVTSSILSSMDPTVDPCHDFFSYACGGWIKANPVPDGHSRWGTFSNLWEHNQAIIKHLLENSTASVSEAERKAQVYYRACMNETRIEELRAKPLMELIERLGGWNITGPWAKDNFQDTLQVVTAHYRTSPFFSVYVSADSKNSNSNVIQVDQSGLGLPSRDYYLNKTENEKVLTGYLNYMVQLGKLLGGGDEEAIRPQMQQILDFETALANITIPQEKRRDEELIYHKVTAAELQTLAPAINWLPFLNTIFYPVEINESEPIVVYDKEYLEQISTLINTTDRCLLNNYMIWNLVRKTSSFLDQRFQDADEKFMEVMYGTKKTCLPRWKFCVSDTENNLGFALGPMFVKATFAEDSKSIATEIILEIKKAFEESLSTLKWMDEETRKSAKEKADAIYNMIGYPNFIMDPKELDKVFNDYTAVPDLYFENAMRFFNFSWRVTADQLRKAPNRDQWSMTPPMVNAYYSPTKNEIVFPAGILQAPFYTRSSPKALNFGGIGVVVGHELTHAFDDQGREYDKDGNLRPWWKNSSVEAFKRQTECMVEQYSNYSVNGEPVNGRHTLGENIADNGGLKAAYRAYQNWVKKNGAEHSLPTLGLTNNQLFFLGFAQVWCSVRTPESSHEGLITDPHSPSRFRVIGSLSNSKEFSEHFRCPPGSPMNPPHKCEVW", "experiment": "ECE-1 activity in plasma membrane fraction of HNPE cells (conversion of 125I Big ET-1 to 125I ET-1)", "type": "biochemical", "procedure": "as §1, §2"}}, "note": "Marks after values point to notes of the source that are not given here. No end group written: not given here. *: point of attachment. dPhe(β-Ph) = β-phenyl D-Phe (N-terminal, N-acetylated), CC(=O)N[C@@H](C(=O)*)C(c1ccccc1)c1ccccc1", "data": [{"molecule": "N-Acetyl-b-phenyl D-Phy-Leu-Asp-Ile-Ile-Trp ({Ac-dPhe(β-Ph)}-LDIIW) [PD-142893, ETA/B receptor antagonist]", "values": [{"measurement": "nitrite production, PD-142893 + ET-1", "setting": "[1]", "result": "decrease in nitrite production"}]}, {"molecule": "ET-3: ETB-receptor-selective agonist, endothelin isopeptide (CTCFTYKDKECVYYCHLDIIW; ends and bridges not checked; cysteine pairing not given here; UniProt P14138 97-117, looked up)", "values": [{"measurement": "effect of intravitreal ET-3 on anterograde axonal transport compared with ET-1", "setting": "rat optic nerve", "result": "no significant difference between ET-1 and ET-3"}]}, {"molecule": "O=P(O)(O)CN[C@@H](Cc1ccc(-c2ccccc2)cc1)c1nn[nH]n1", "note": "[CGS 26303]", "values": [{"measurement": "decrease in 125I ET-1", "setting": "ECE-1 [2]; rat lung plasma membrane fraction, 180 minutes, vs control", "result": 56, "unit": "%"}, {"measurement": "fmoles 125I ET-1 produced/mg protein/180 min", "setting": "ECE-1 [2]; rat lung tissue plasma membrane fraction, 100 μM CGS-26303, 180 min, 37° C., control 25 ± 1", "result": "11 ± 4* fmoles ^125I ET-1 produced/mg protein/180 min"}, {"measurement": "fmoles 125I ET-1 produced/mg protein/180 min", "setting": "ECE-1 [3]; HNPE cells plasma membrane fraction, 100 μM CGS-26303, 180 min, 37° C., control 27 ± 1", "result": "12 ± 2* fmoles ^125I ET-1 produced/mg protein/180 min"}, {"measurement": "decrease in 125I ET-1 production", "setting": "ECE-1 [3]; HNPE plasma membrane fraction, 180 minute time period, vs control", "result": 55, "unit": "%"}]}]}
